Earlier results in patent publication US6878388B1, “Vanadium compounds for treating proliferative cell disorders” (Parker Hughes Institute, priority 2000, dated 2005).

How the values were obtained:
pharyngonasal cancer = conditions: single assay, Sakurai et al. 1995; cited from earlier work
tumor cell growth = conditions: Kopf-Maier et al. 1983; cited from earlier work

Molecule | activity against pharyngonasal cancer (pharyngonasal cancer) | effect on tumor cell growth (tumor cell growth)
O.O.O=S(=O)([O-])[O-].[O]=[V+2].c1cnc2c(c1)ccc1cccnc12 [[VO(Phen)(H2O)2](SO4), (diaqua)(1,10-phenanthroline)oxovanadium (IV) sulfate] | active | 
Vanadocene dichloride [VDC] |  | arrest tumor cell growth
